“And” between values parts separate entries of the source, which are not always exact repeats. Equal entries are not always repeated. “Also recorded” adds a separate entry of the source. Where two headings read alike, the source gives them in different places.
Legend:
xenograft model = conditions: low doses; cited from earlier work
[1] = cited from earlier work
[2] = tested on: AML patient sample #1910-017 cells; assay: SCNP arm #1: modulated signaling in AML patient cells with and without kinase inhibitors; assay type: cell-based, human; conditions: subject #1910-017
Description: (§1) Peripheral blood or bone marrow samples from AML patient were collected (n=9), which had been previously ficoll separated and cryopreserved. Patient characteristics are shown Table 7. One cryovial per patient was used. Samples were thawed and centrifuged over ficoll to remove dead cells and debris.
Arm #1 assessed basal and modulated signaling in the JAK/STAT, PI3K/mTor, and MEK/ERK pathways in the presence and absence of specific kinase inhibitors. Kinase inhibitors were added […]before the addition of the signaling stimulus. Signaling was induced by individual addition of stem cell factor, Flt3 ligand, G-CSF, IL-3, or thrombopoietin (TPO) for a short period of time (5-15 min). Cells were then fixed, permeabilized, and stained with a cocktail of cell surface and phospho-specific antibodies to measure signaling in multiple cell types. Signaling data is calculated in each cell type using a fold-change metric comparing each condition to its basal state: example: (stimulated^+/−inhibitor)/(unstimulated). Also, cells with an apoptotic phenotype were excluded from the signaling analysis by gating.

[3] = tested on: PMA induced pERK in lymphocytes from PBMCs; assay: PMA induced pERK in lymphocytes from PBMCs; assay type: cell-based
[4] = tested on: pERK in blood lymphocytes; conditions: ~1000 ng/ml plasma conc.; cited from earlier work
[5] = tested on: AML patient myeloid cells; assay: SCNP arm #2: cytotoxic and cytostatic impact of drugs on AML patient cells; assay type: cell-based, human; conditions: 48 hours drug culture
From the text: as §1
Arm #2 asessed the cytotoxic and cytostatic impact of various drugs as single agents and in combinations (including the specific kinase inhibitors tested in arm #1). Here the cells from each donor were cultured in the presence of TPO, IL-3, SCF, and FLT3L for 2 days to drive proliferation. After 2 days the cells were then distributed into wells containing various drugs, wherein the cells were cultured for 48 hours. The cultures were fixed, permeabilized, and stained with a cocktail of antibodies to measure complete cell death, apoptosis, S/G2 phase, M-Phase, and DNA damage. These readouts were also obstained from samples cultured separately with individual growth factors (no drugs) for four days.

[6] = tested on: tumour xenografts that have abnormal PI3K signalling; conditions: loss of PTEN function or gain-of-function PI3K mutations; cited from earlier work
[7] = tested on: pAKT and pS6 on H460 cell line; conditions: cited from earlier work
AML cell lines = conditions: read-out: IC90, proliferation of AML cell lines; cited from earlier work
proteome activity = conditions: 10 nM; cited from earlier work
[8] = tested on: anti-IgM_pAKT induced PBMC; assay: anti-IgM induced pAKT in PBMC; assay type: cell-based
[9] = tested on: pAKT (same cells, same stim); assay: pAKT inhibition in PBMCs (monos), GM-CSF; assay type: cell-based
[10] = tested on: Ba/F3-wt (+IL-3, proliferation) JAK2 wt; conditions: read-out: Reported activity Ba/F3-wt (+IL-3, proliferation) JAK2 wt; cited from earlier work
p-S6 = conditions: 10 nM in vitro; cited from earlier work
mantle cell line (Jeko) = conditions: 10 nM in vitro; cited from earlier work
[11] = tested on: pAKT levels assayed in PRP; conditions: patients treated at 80 mg and higher; cited from earlier work
[12] = tested on: tumor FDG avidity, CA-125; conditions: cited from earlier work
PC3 = conditions: read-out: inhibition of PC3 cancer cell proliferation (IC50); cited from earlier work
[13] = tested on: pS6 in paired tumor biopsies; conditions: patients treated at 80 mg and higher; cited from earlier work
A2780 = conditions: cited from earlier work
MDA-MB-361 = conditions: read-out: inhibition of MDA-MB-361 cancer cell proliferation (IC50); cited from earlier work
GM-CSF_pSTAT5 [14] = assay: cells; conditions: read-out: GM-CSF_pSTAT5 inhibition IC50
GM-CSF_pSTAT5 [15] = conditions: 1000 nM
[16] = Plasma pharmacokinetics in patients or volunteers (values collected in Table 1); conditions: human, in vivo
[17] = human, in vivo; cited from earlier work
[18] = tested on: normal PBMC (lymphoid and myeloid cells); assay: DNA damage response kinetics in normal PBMC; assay type: cell-based, human

In the case of `CC(C)(C)c1cc(NC(=O)Nc2ccc(-c3cn4c(n3)sc3cc(OCCN5CCOCC5)ccc34)cc2)no1` [AC220], the “effect in xenograft model” value (xenograft model) is given as “tumor regression in a xenograft model at low doses. Ref:” and the half-life ([1]; human, in vivo) is given as “AC220 half-life can be 2.5 days, exhibiting minimal peak and”.

In the case of `O=C(c1cc(Cc2n[nH]c(=O)c3ccccc23)ccc1F)N1CCN(C(=O)C2CC2)CC1` [AZD2281, Olaparib], the “Cmax (maximum plasma concentration)” value ([1]; at MTD) is given as about 6000 ng/mL and the Cmax ([1]; read-out: Cmax (maximum plasma concentration), at MTD) is given as 13.8 µM.

In the case of `Cn1cnc2c(F)c(Nc3ccc(Br)cc3Cl)c(C(=O)NOCCO)cc21` [AZD6244], the “inhibition of SCF induced p-AKT” value [2] is reported as “no inhibition”, the “inhibition of SCF induced p-S6” value [2] is reported as “partial inhibition” and the “inhibition of SCF-PERK” value [2] is reported as “complete inhibition”. The inhibition at 1 µM ([3]; 1 μM in vitro, read-out: PMA induced pERK inhibited) was 85 to 95%, the IC50 ([3]; lymphocytes from PBMCs) was about 100 nM and the “pERK inhibition (PD effect)” value [4] was 11u-post dose. PD effects of ~80% pERK inhibition can be seen at.

For `Nc1ccn([C@@H]2O[C@H](CO)[C@@H](O)[C@@H]2O)c(=O)n1` [AraC, Cytarabine], the “drug induced apoptosis / cell death of patient myeloid cells” value (from here on “drug induced apoptosis / cell death”) [5] was “resisted apoptosis”.

For `Nc1ncn([C@@H]2O[C@H](CO)[C@@H](O)[C@H]2O)c(=O)n1` [Azacitidine], the Cmax ([1]; human, in vivo) is given as 1.42 to 4.72 µM.

For `Cn1c(=O)n(-c2ccc(C(C)(C)C#N)cc2)c2c3cc(-c4cnc5ccccc5c4)ccc3ncc21` [BEZ235], the “inhibition of SCF induced p-AKT” value [2] is listed as “complete inhibition”, the “inhibition of SCF induced p-S6” value [2] is listed as “partial inhibition” and the “activity against tumour xenografts” value [6] is listed as “show that BEZ235 has strong anti-proliferative activity against”. For the same compound, the IC50 ([7]; read-out: pAKT 1050) was 10 nM and the IC50 ([7]; read-out: pS6 1050) was 50 nM.

For `CC(C)C[C@H](NC(=O)[C@H](Cc1ccccc1)NC(=O)c1cnccn1)B(O)O` [Bortezomib], the IC90 (AML cell lines) is given as 10 to 50 nM, the “effect on proteome activity” value (proteome activity) is given as “blocks proteome activity [BLOOD, 16 DECEMBER 2010” and the “drug induced apoptosis / cell death” value [5] is given as “effective at inducing apoptosis; also recorded: induced considerable levels of cell death and cytostasis”. The “Cmax (prescribing info)” value ([1]; human, in vivo) was 112 ng/m1 and the Cmax ([1]; read-out: Cmax (prescribing info), human, in vivo) was 0.291 µM.

In the case of `CC[C@H](Nc1ncnc2[nH]cnc12)c1nc2cccc(F)c2c(=O)n1-c1ccccc1` [CAL-101], the “block of anti-IgM induced pAKT” value ([8]; 40 nM) is given as “blocked ~90%. Ref: Herman, Sarah EM et al. Blood. Jun. 3,”, the IC50 ([8]; anti-IgM induced pAKT, PBMC, read-out: Nodality IC50) is given as about 10 nM and the “mean volume of distribution” value ([1]; human, in vivo) is given as 57.7 L. The “steady-state trough plasma concentrations above the EC50 for the in vitro whole-blood assay” value ([1]; human, in vivo) was “concentrations that are >10-fold above the EC50 for the in vitro” and the t1/2 ([1]; human, in vivo) was about 8 h.

With `C[C@@H]1CCN(C(=O)CC#N)C[C@@H]1N(C)c1ncnc2[nH]ccc12` [CP690550] the “effect on high basal level of p-STAT5 signaling” value [2] was “inhibited”, the “inhibition of IL-3 signaling” value [2] was “complete inhibition” and the “inhibition of TPO signaling” value [2] was “partial inhibition”. For the same compound, the T½ ([1]; human, in vivo, 30 mg) was 2.6 h.

For `N#CCNC(=O)c1ccc(-c2ccnc(Nc3ccc(N4CCOCC4)cc3)n2)cc1` [CYT387], the IC50 [9] is listed as 129 nM, the IC90 [9] is listed as about 1000 nM and the IC50 [10] is listed as 1420 nM.

In the case of `Nc1ncn([C@H]2C[C@H](O)[C@@H](CO)O2)c(=O)n1` [Decitabine], the Cmax ([1]; 15 mg/m2 IV over 3 hrs, every 8 hrs, for 3 days) is given as 0.3 to 1.6 µM.

In the case of `CO[C@H]1C[C@@H]2CC[C@@H](C)[C@@](O)(O2)C(=O)C(=O)N2CCCC[C@H]2C(=O)O[C@H]([C@H](C)C[C@@H]2CC[C@@H](OCCO)[C@H](OC)C2)CC(=O)[C@H](C)/C=C(\C)[C@@H](O)[C@@H](OC)C(=O)[C@H](C)C[C@H](C)/C=C/C=C/C=C/1C` [Everolimus], the “inhibition of p-S6” value (p-S6) is listed as “inhibit p-S6 completely”, the “effect on proliferation of mantle cell line (Jeko)” value (mantle cell line (Jeko)) is listed as “inhibit proliferation” and the Cmax ([1]; 10 mg/d) is listed as 61 ng/m1 and 63 nM. For the same compound, the trough ([1]; 10 mg/d) was 17 ng/m1 and 17.7 nM and the trough ([1]; 50 mg/wk) was “lng/ml (~1 nM). [J Clin Oncol 26: 1603-1610. 2008]. A 10 nM dose”.

For `CS(=O)(=O)N1CCN(Cc2cc3nc(-c4cccc5[nH]ncc45)nc(N4CCOCC4)c3s2)CC1` [GDC-0941], the “decreases in pAKT levels assayed in PRP” value [11] is given as “biopsies in addition to decreases of >90% in pAKT levels assayed”, the “reductions in mean SUVmax (tumor FDG avidity on PET scan)” value ([12]; 3 patients treated at ≧100 mg) is given as “GDC-0941 with reductions (≧30% in mean SUVmax) in tumor” and the “decrease in CA-125” value ([12]; ovarian cancer patient) is given as “FDG avidity observed on PET scan and an ~80% decrease in CA-”. The “inhibition of SCF induced p-AKT” value [2] was “partial inhibition”, the “inhibition of SCF induced p-S6” value [2] was “partial inhibition” and the IC50 (PC3) was 280 nM. The “decreases in pS6 staining in paired tumor biopsies” value [13] was “Decreases in pS6 staining of >50% can occur in paired tumor”, the IC50 (A2780) was 140 nM and the IC50 (MDA-MB-361) was 720 nM. The “mean Cmax and AUCinf with dose” value ([1]; human, in vivo) was “display dose-proportional increases in mean Cmax and AUCinf”.

In the case of `N#CC[C@H](C1CCCC1)n1cc(-c2ncnc3[nH]ccc23)cn1` [INCB018424], the IC50 (GM-CSF_pSTAT5 [14]) is given as 215 nM, the “inhibition of GM-CSF_pSTAT5” value (GM-CSF_pSTAT5 [15]) is given as “Jan 2011.) 1000 nM can completely inhibit GM-CSF_pSTAT5” and the Cmax ([1]; 100 mg 24 h) is given as 4.78 µM.

In the case of `Cc1ccc(NC(=O)c2ccc(CN3CCN(C)CC3)cc2)cc1Nc1nccc(-c2cccnc2)n1` [Imatinib], the assumed trough [16] is reported as 1000 ng/ml and 2 μM.

With `CCNC(=O)c1noc(-c2cc(C(C)C)c(O)cc2O)c1-c1ccc(CN2CCOCC2)cc1` [NVP-AUY922] the “drug induced apoptosis / cell death” value [5] was “effective at inducing apoptosis”.

For `Cn1nnc2c(C(N)=O)ncn2c1=O` [Temozolomide], the “Adult MTD” value [17] is given as “glioblastoma multiforme patients. Adult MTD = 200 ng/m2/day”, the T½ ([1]; human, in vivo) is given as 1.67 h and the “plasma concentration (Cmax) corresponding to 200 ng/m2/day” value ([1]; human, in vivo) is given as 9300 ng/mL. The Cmax ([1]; read-out: plasma concentration (Cmax) corresponding to 200 ng/m2/day, human, in vivo) was 47.9 µM.

For gemtuzumab ozogamicin [Mylotarg], the “kinetics in Myeloid versus Lymphoid cells” value [18] was “faster kinetics in Myeloid compared to Lymphoid cells” and the “time by which induction of p-ATM, p-Chk2 is seen” value ([18]; Myeloid cells) was at most 2 h.
